Results taken from patent US20240009269A1 (priority 2020, published 2024).
Where two headings read alike, the source gives them in different places.

What was measured:
[1] = test system: dhBMECs in microvessels; assay: Analysis of cell behavior in tissue-engineered microvessels; type: cell-based, human
Text: To monitor cell dynamics, cell loss and proliferation events were counted manually. Rates of cell loss (% h^−1), division (% h^−1), turnover (% h^−1), and cell loss at the site of a focal leak (%) were quantified from phase contrast imaging sequences, as reported previously. Briefly, the total number of endothelial cells was counted manually for each microvessel plane, utilizing a region approximately 100 μm wide corresponding to about a fifth of the channel circumference. Cell loss was identified by observing the removal of a cell from the microvessel. Cell loss from the monolayer occurred through two processes: (1) apoptotic loss, in which a cell constricts, releases its contents into the vessel lumen, which is then removed from the monolayer over a period of 20-60 minutes, and (2) non-apoptotic loss, in which a cell swells and disappears from the monolayer over a period of 2-6 minutes. Cell division was identified by observing cell compression, alignment of chromosomes, and the formation of daughter cells. The rate of turnover (% h^−1) is the difference between the rate of cell division and the rate of cell loss. A cell loss event was identified to be at the site of a focal leak if it occurred within <50 μm and <4 minutes of the occurrence of a focal leak. For a limited set of experiments, the WTC iPSC line [Kreitzer, F. R., et al., Am J Stem Cells, 2013. 2(2): p. 119-31] with GFP-tagged zona occludens-1 (Allen Cell Institute) was used to facilitate live-cell monitoring of tight junction organization.
Confocal z-stacks (0.4 μm in thickness) at 40× magnification were obtained on a swept field confocal microscope system (Prairie Technologies). Illumination was provided by an MLC 400 monolithic laser combiner (Keysight Technologies). Complete reconstruction of the microvessel lumen required approximately four hundred slices. Confocal imaging was conducted before, during, and after exposure to 50 μM·minute melittin treatment.

[2] = test system: mouse brain (blood-brain barrier)
Text: Briefly, male C57BL/6J mice (n=43, 6-8 weeks old, 20-25 g, Jackson Laboratory) were anesthetized with 2% isoflurane. The common carotid artery (CCA) bifurcation was exposed and the occipital artery branching off from the external carotid artery (ECA) was coagulated. The ECA and the pterygopalatine artery (PPA) were temporarily ligated with 4-0 silk sutures. A temporary ligature using a 4-0 suture was placed on the carotid bifurcation and the proximal CCA was permanently ligated. A microcatheter (PE-8-100, SAI Infusion Technologies) was flushed with 2% heparin (1,000 U mL^−1, heparin sodium, Upjohn), inserted into the CCA via a small arteriotomy, and advanced into the internal carotid artery (ICA).
For each animal, 150 μL of solution was infused at a rate of 150 μL minute^−1. […] The brains were harvested immediately after Evans Blue injection, sectioned in brain slicer matrix (Zivic Instruments) to produce 1 mm slabs.
Animal anesthesia was maintained at 1.5-2% during the MRI scan. Mice were placed on a water-heated animal bed equipped with temperature and respiratory control. Respiration was monitored and maintained at 30-60 minutes^−1. All MRI experiments were performed on a Bruker 11.7T MRI scanner. Baseline T2 (TR/TE=2,500/30 ms), susceptibility-weighted imaging (SWI) (TR/TE=378/8 ms), T1 (TR/TE 350/6.7 ms)-weighted, dynamic gradient echo echo-planar imaging (GE-EPI, TR/TE 1250/9.7 ms, field of view (FOV)=14×14 mm, matrix=128×128, acquisition time=60 s and 24 repetitions) and dynamic T1 imaging (TR/TE 2000/3. 5ms, field of view=14×14 mm, acquisition time=8 seconds and 20 repetitions) images of the brain were acquired. The microcatheter was connected to a syringe mounted on an MRI compatible programmable syringe pump (PHD 2000, Harvard Apparatus Inc.). Gadolinium (Gd; Prohance) dissolved in saline at 1:50 was infused intra-arterially at the rate of 150 μL minute^−1 under dynamic GE-EPI MRI for visualization of perfusion territory. […] To quantify BBB status, T1 intensities in cortex, hippocampus and thalamus/hypothalamus were compared between ipsilateral and contralateral hemispheres. T1 hyperintensity was corrected for possible asymmetry using pre-contrast T1 images and normalized as the ratio of ipsilateral to contralateral intensity. Additionally, the area of BBBO (mm^2) was calculated by conversion of T1 images to binary using the Auto Threshold function (plugin v1.17; Maximum Entropy method) [Kapur, J. N., P. K. Sahoo, and A. K. C. Wong, Computer Vision, Graphics, and Image Processing, 1985, 29(3): p. 273-285] in ImageJ. T2-weighted and SWI images were acquired at the same timepoints for detection of brain damage and microhemorrhage. Subsequently, animals were sacrificed for further histological assessment.
To determine the area and region of perfusion territory, we first calculated the contrast enhancement maps at the time where contrast enhancement was at its maximum. As Gd causes negative contrast under T2 imaging, we calculated the contrast enhancement as (SIpre-SIpost)/SIpre, where SI is the signal intensity of an MR image. Histogram was plotted for all pixels in the brain region in a contrast enhancement map and further fitted into two Gaussian distributions, assuming there were two dominant populations for non-contrast enhanced and contrast-enhanced pixels, respectively. The cutoff value to separate the two populations was then determined. The fraction of contrast enhanced areas was calculated by the ratio of the number of pixels, whose values are larger than the cutoff value, to the total number of pixels in the brain. A similar method was used to determine the BBBO territory.

With `CC[C@H](C)[C@H](NC(=O)CN)C(=O)NCC(=O)N[C@@H](C)C(=O)N[C@H](C(=O)N[C@@H](CC(C)C)C(=O)N[C@@H](CCCCN)C(=O)N[C@H](C(=O)N[C@@H](CC(C)C)C(=O)N[C@H](C(=O)N[C@H](C(=O)NCC(=O)N[C@@H](CC(C)C)C(=O)N1CCC[C@H]1C(=O)N[C@@H](C)C(=O)N[C@@H](CC(C)C)C(=O)N[C@H](C(=O)N[C@@H](CO)C(=O)N[C@@H](Cc1c[nH]c2ccccc12)C(=O)N[C@H](C(=O)N[C@@H](CCCCN)C(=O)N[C@@H](CCCNC(=N)N)C(=O)N[C@@H](CCCCN)C(=O)N[C@@H](CCCNC(=N)N)C(=O)N[C@@H](CCC(N)=O)C(=O)N[C@@H](CCC(N)=O)C(N)=O)[C@@H](C)CC)[C@@H](C)CC)[C@@H](C)O)[C@@H](C)O)C(C)C)C(C)C` [melittin] as the compound, how does the cell division rate ([1]; across melittin doses 3-100 μM·minute) read?
Its cell division rate is “about 1 % h^−1”.

What about the “cell loss rate following melittin exposure” value ([1]; doses 3-100 μM·minute) of the same compound?
The value was “dose-dependent”.

What about the “turnover of dhBMECs (division rate minus loss rate)” value ([1]; doses 3-100 μM·minute) of the same compound?
Its value is “negative”.

What about the “cell response, GFP-tagged ZO1 dhBMEC microvessels” value ([1]; high melittin doses (100 μM·min)) of the same compound?
The value was “cells contracted”.

And the “Evans Blue leakage” value ([2]; 1 μM·minute)?
The value was “No leakage of Evans Blue”.

What about the “dose relative to solubility limit (fold below)” value ([2]; 3 μM·min melittin) of the same compound?
Its value is ~120 fold.

What about the “Evans Blue leakage” value ([2]; 3 μM·minute, ipsilateral hemisphere) of the same compound?
Its value is “reproducible leakage of Evans Blue”.

And the “Evans Blue extravasation” value ([2]; 3 μM·minute, 24 hours)?
The value was “no Evans Blue extravasation”.

What about the “leakage of Gd (T1 MRI)” value ([2]; 3 μM·minute, 24 hours) of the same compound?
The value was “marginal leakage”.

What about the T1 hyperintensity ([2]; 3 μM·minute, cortex) of the same compound?
The T1 hyperintensity was “much lower”.

And the “BBB status (Gd-enhanced MRI and Evans Blue)” value ([2]; 3 μM·minute, day 7)?
Its value is “full recovery of the BBB”.

And the “T1 intensity, ipsilateral vs contralateral” value ([2]; 3 μM·minute, hippocampus and thalamus/hypothalamus, following dosing)?
The value was “significant increase”.

What about the “brain territory opened (area of BBBO, T1 thresholding)” value ([2]; 3 μM·minute, within the hippocampus, immediately after dosing) of the same compound?
The value was 5.70±1.73 mm^2.

And the “Evans Blue leakage” value ([2]; 5 μM·minute)?
Its value is “Widespread leakage of Evans Blue”.

What about the “reduction of BBBO area” value ([2]; at 24 hours and 7 days) of the same compound?
The value was ~20 fold.

What about the “minimum effective dose for BBBO” value ([2]; intra-arterial (internal carotid artery), 1 minute) of the same compound?
The value was 3 µM·min.

And the “difference in dose required for BBBO, human microvessels (20 μM·minute) vs mouse brain (3 μM·minute)” value ([2]; mouse, in vivo)?
The value was “approximately 7 fold”.
